Activity calls are given as the source filed them.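 Rule for the calls: active = compounds giving half or more protection of infected cells from virus-caused growth loss, again on retest; inactive = the rest.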 Where a SMILES comes first, the peptide text is derived from it.
Tested on: CEM cells HIV-1 protection, formazan growth assay
Assay: NCI AIDS Antiviral Assay
Details: for IC50: measured here: growth of uninfected CEM cells
In short: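 Category rules: moderately active means at least 50% protection on retest, and confirmed active means 100% protection reproducibly. The underlying data came from a formazan growth assay in HIV-1-infected CEM cells.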

Compound	EC50 [µM]	IC50 [µM]	outcome
O=C1OC(c2ccccc2)=N/C1=C/c1ccc2c(c1)OCO2	> 24.5	> 24.5	
ClC(=C(c1ccc(OC2CCCCO2)cc1)c1ccc(OC2CCCCO2)cc1)c1ccccc1 (configuration not stated)	> 100	87.1	
CSc1n[nH]c(N)c1C(=O)Nc1ccccc1	> 186	117	
CCOC(=O)C(=O)CC1=CC=CC2=NC(=O)CCN12	> 200	> 200	
O=C1/C(=C/c2ccc(Br)cc2)CCC/C1=C\c1ccc(Br)cc1	> 6.31	> 6.31	
CC(=O)OC1COC(n2c(=S)n(-c3ccccc3)c(=O)c3ccccc32)C(OC(C)=O)C1OC(C)=O (configuration not stated)	> 36.3	> 36.3	
COc1c2c(c(OC)c3c1C(=O)c1ccccc1C3=O)C(=O)CCC2	> 8.13	> 8.13	
O=[N+]([O-])c1ccc(C2=Nc3ccccc3S(=O)C(c3ccccc3)C2)cc1 (configuration not stated)	> 7.24	> 7.24	
CCOC(=O)C(Sc1ccccc1)c1c(OC)cc(=O)oc1/C=[N+](/[O-])c1ccc(N(C)C)cc1 (configuration not stated)			inactive
CCOC(=O)/C=C/CCCC(N1CCCC1)n1nnc2ccccc21 (configuration not stated)	> 200	3.31	
S=C(/N=N/c1[nH]c2ccccc2c1NNC(=S)NC12CC3CC(CC(C3)C1)C2)NC12CC3CC(CC(C3)C1)C2			inactive
CN1c2ccccc2N(C(=O)c2ccc([N+](=O)[O-])cc2)C(CC(=O)O)c2cccn21 (configuration not stated)	> 617	240	
Cc1cc(Cc2cc(C)c(NC(=O)C(=O)C3C(=O)NC(=S)NC3=O)c(C(C)C)c2)cc(C(C)C)c1NC(=O)C(=O)C1C(=O)NC(=S)NC1=O			inactive
COc1c2occc2cc2ccc(=O)oc12	> 83.2	> 83.2	
N#C/C(=C/NC(=S)Nc1ccc(Cl)c(Cl)c1)C(N)=O	> 200	38	
CCN(CC)C(=S)/N=C(\SC(=S)N(CC)CC)c1ccccc1	> 132	52.5	
O=C(NNC(=S)Nc1ccccc1)c1cc(-c2ccccc2)nc2ccccc12	> 200	21.9	
Oc1ccccc1CNCc1nc2ccccc2[nH]1	> 200	74.1	
N#Cc1c[nH]n2ccnc12	> 200	> 200	
COc1ccc(/C=C/C(=O)c2cc(C)ccc2OC(C)=O)cc1	> 23.4	15.8	
CCCCCCC(=O)COP(=O)(OCC(=O)CCCCCC)OCC1OC(n2cc(C)c(=O)[nH]c2=O)CC1N=[N+]=[N-] (configuration not stated)	0.00107	2	
Cc1cc(N(CCC#N)CCC#N)ccc1N=Nc1ccc(C(=O)O)cc1	> 100	> 100	

Compound	EC50 [µM]	IC50 [µM]	outcome
Cc1sc2nc(N(C)C)oc(=O)c2c1C	> 200	75.9	
O=c1c(O)c(-c2ccc(O)cc2O)oc2cc(O)cc(O)c12			inactive
COc1ccc(C2C3=C(COC3=O)OC(C)(C)Oc3cc4c(cc32)OCO4)cc1 (configuration not stated)	> 200	13.8	
C=C1CC(CCCl)(c2ccccc2)OC1=O (configuration not stated)	> 41.7	6.46	
OC1COc2ccc(Cl)cc2CSC1 (configuration not stated)	> 200	166	
CC(=O)/C(=C\c1ccccc1O)C(=O)Nc1ccccc1C	> 33.9	22.4	
O=[N+]([O-])c1ccc(NSc2ccccc2)cc1	> 200	9.33	
Cn1cc(-c2ccc(CCOC3CCCCO3)cc2)c2c(C#N)cccc21 (configuration not stated)	> 200	38.9	
COC(=O)c1c(C)cccc1C1CN=NC12Cc1ccc(C)cc1C2=O (configuration not stated)	> 72.4	41.7	
CC(=O)SC(C[N+](=O)[O-])c1ccc2c(c1)OCO2 (configuration not stated)	> 200	3.98	
O=C(CSS(=O)(=O)O)c1ccccc1	> 200	> 200	
CC(=O)CC1(O)C(=O)Nc2ccccc21 (configuration not stated)	> 200	> 200	
COC(=O)c1cc(C(=CCCCCN=[N+]=[N-])c2cc(Cl)c(OC)c(C(=O)OC)c2)cc(Cl)c1OC	19.1	> 200	
O=C1CCC(=O)N1C(c1ccccc1)(c1ccccc1)N1C(=O)CCC1=O	> 200	15.1	
O=C(CCc1nnc2s/c(=C\c3ccccc3)c(=O)n12)Nc1cc(Cl)ccc1Cl	> 11.7	> 11.7	
Cc1cc(=O)[nH]c(NN2C(Cl)C(=O)C2c2ccc(O)cc2)n1 (configuration not stated)	> 42.7	6.76	
CC1C(Cl)(Cl)C1(C)/C=C/C1C(C)(C)C1(Cl)Cl (configuration not stated)	> 200	91.2	
COc1c(C)c(C/C=C(\C)CCCCO[Si](c2ccccc2)(c2ccccc2)C(C)(C)C)c(OC)c(OC)c1OC	> 200	93.3	
CC(=O)NS(=O)(=O)c1ccc(NC(=O)c2ccccc2SC(=O)CCCCBr)cc1	12.3	148	
C=CC1=C(C)C2=NC1=CC1=NC(=CC3=C(C)C4=C(O)C(C(=O)O)C(=C5NC(=C2)C(C)C5CCC(=O)O)C4=N3)C(CC)=C1C (configuration not stated)	> 39.8	> 39.8	
CC(C)CC(NC(=O)C(Cc1ccc(O)cc1)NC(=O)C(CO)NC(=O)C(CCC(N)=O)NC(=O)C1CCCN1C(=O)C(CC(C)C)NC(=O)C(C)NC(=O)CNC(=O)C(N)CCC(N)=O)C(=O)NCC(=O)O (configuration not stated) (H-QGALPQSYLG-OH; configuration not given here)			inactive
CC(C)(C)C#COC(=O)c1ccccc1	> 251	> 251	

Compound	EC50 [µM]	IC50 [µM]	outcome
CC(=O)C(=Cc1ccc(Cl)cc1)C(C)=O	> 427	19.5	
O=C1NNC=Nc2ccc(cc2)S(=O)(=O)c2ccc(cc2)N=CNNC1=O	> 224	162	
COC(=O)CCCc1ccc2c(c1)CC1(C2)Cc2cc3c(cc2C1)CCCC3	> 200	81.3	
CCN(CC)CC(C(C)=O)C(c1ccccc1)c1c(O)c2ccccc2oc1=O (configuration not stated)	> 43.7	> 43.7	
C#CC(C)(C)Oc1ccc2c(=O)c(-c3ccccc3)coc2c1	> 200		
Cc1ccc2c(c1)C(=O)C1(C2)Cc2c(C)cccc2C1=O (configuration not stated)	> 200	> 200	
CCCCCCCCCCC(=O)CC(=O)c1c(O)cccc1O			inactive
Cc1nc2sccn2c1C(=O)NN	> 1260	912	
COc1cccc(Nc2nc(N)nc(N)c2N=O)c1	> 200	11.2	
Clc1cccc(-c2sc(-c3cccs3)cc2Cc2cccs2)c1	> 200	141	
C=C1C2CCC3(C4C[C@H]5C6(CCC[C@@]5(C)[C@H]5OCCN5[C@H]6O4)[C@@H]3C2)C1OC(C)=O (some centres not stated)	> 12.9	> 12.9	
NC1=Nc2cc(C(F)(F)F)ccc2Sc2nc3ccccc3n21	> 200		
COc1ccccc1NC(=O)/C(C=NC(=S)c1ccncc1)=C(\C)O			inactive
NNC(N)=Nc1cccc2ccccc12	> 200	> 200	
N#Cc1c(Sc2ccccc2N)cccc1Sc1ccccc1N	> 200	> 200	
O=C(C(=Cn1c(=O)cc[nH]c1=S)C(=O)c1ccccc1)c1ccccc1			inactive
OCC1C(O)[C@@H]2OC3(CCCC3)O[C@@H]2CN1OC/C=C/c1ccccc1 (some centres not stated)	> 200	145	
CCCCCCNCCCNc1c2ccccc2nc2cccc([N+](=O)[O-])c12	> 2	0.138	
C1CSC2=C(S1)SC1=C(S2)SC(=C2SC3=C(SC4=C(SCCS4)S3)S2)S1	> 200	> 200	
CN(C)CCONC(=O)C12CC3CC(CC(C3)C1)C2			inactive

— PubChem BioAssay AID179 (DTP/NCI, 2004)
